Reference: the supplement of paper PMC10307832

Columns and labels:
Experiment in all cases: relative viability (nuclei count vs DMSO), 5 days (fraction); higher = more cells survive
[1] = compound: COc1cc(-c2nn([C@H]3CC[C@H](N4CCN(C(C)=O)CC4)CC3)c3ncnc(N)c23)ccc1NC(=O)c1cc2ccccc2n1C + CS(=O)(=O)CCNCc1ccc(-c2ccc3ncnc(Nc4ccc(OCc5cccc(F)c5)c(Cl)c4)c3c2)o1 [Lapatinib] (partner 2 µM)
In short: (§1)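 Each reported value is a median over duplicate plates. It expresses relative viability: treated-well nuclei count divided by vehicle-well nuclei count. Lung cancer cell lines in 1536-well plates were dosed by pin tool a day after seeding, alone with one drug or with a fixed anchor-drug dose plus five library-drug doses (not always all listed) in √10 steps, and nuclei were counted after 5 days.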

[2] = compound: COc1cc(-c2nn([C@H]3CC[C@H](N4CCN(C(C)=O)CC4)CC3)c3ncnc(N)c23)ccc1NC(=O)c1cc2ccccc2n1C + CCNC(=O)c1noc(-c2cc(C(C)C)c(O)cc2O)c1-c1ccc(CN2CCOCC2)cc1 [Luminespib] (partner 0.01 µM)
In short: as §1

[3] = compound: CO[C@@H]1[C@H](N(C)C(=O)c2ccccc2)C[C@H]2O[C@]1(C)n1c3ccccc3c3c4c(c5c6ccccc6n2c5c31)C(=O)NC4 [Midostaurin] + CCNC(=O)c1noc(-c2cc(C(C)C)c(O)cc2O)c1-c1ccc(CN2CCOCC2)cc1 [Luminespib] (partner 0.01 µM)
In short: as §1

[4] = compound: CO[C@@H]1[C@H](N(C)C(=O)c2ccccc2)C[C@H]2O[C@]1(C)n1c3ccccc3c3c4c(c5c6ccccc6n2c5c31)C(=O)NC4 [Midostaurin] + Nc1nc2[nH]cc(CCc3ccc(C(=O)N[C@@H](CCC(=O)O)C(=O)O)cc3)c2c(=O)[nH]1 [Pemetrexed] (partner 0.2 µM)
In short: as §1

[5] = compound: COc1cc(-c2nn([C@H]3CC[C@H](N4CCN(C(C)=O)CC4)CC3)c3ncnc(N)c23)ccc1NC(=O)c1cc2ccccc2n1C + COc1cccc2cc(-c3nc([C@H]4CC[C@H](C(=O)O)CC4)n4ncnc(N)c34)[nH]c12 [OSI-027] (partner 0.5 µM)
In short: as §1

| Cell Line | relative viability ([1]; first compound 0.0128 µM) | relative viability ([1]; first compound 0.04048 µM) | relative viability ([1]; first compound 0.128 µM) | relative viability ([1]; first compound 1.28 µM) | relative viability ([2]; first compound 0.0128 µM) | relative viability ([2]; first compound 0.04048 µM) | relative viability ([2]; first compound 0.128 µM) | relative viability ([2]; first compound 1.28 µM) | relative viability ([3]; first compound 0.01 µM) | relative viability ([3]; first compound 0.03162 µM) | relative viability ([3]; first compound 0.1 µM) | relative viability ([3]; first compound 0.3162 µM) | relative viability ([4]; first compound 0.01 µM) | relative viability ([4]; first compound 0.03162 µM) | relative viability ([4]; first compound 0.1 µM) | relative viability ([4]; first compound 0.3162 µM) | relative viability ([5]; first compound 0.0128 µM) | relative viability ([5]; first compound 0.04048 µM) | relative viability ([5]; first compound 0.128 µM) | relative viability ([5]; first compound 1.28 µM) |
| --- | --- | --- | --- | --- | --- | --- | --- | --- | --- | --- | --- | --- | --- | --- | --- | --- | --- | --- | --- | --- |
| NCI-H1650 | 0.782 | 0.846 | 0.69 | 0.6 | 0.162 | 0.194 | 0.19 | 0.181 | 0.19 | 0.175 | 0.187 | 0.173 | 0.315 | 0.415 | 0.322 | 0.3 | 0.54 | 0.707 | 0.492 | 0.577 |
| NCI-H1651 | 0.961 | 1.03 | 0.621 | 0.74 | 0.797 | 0.859 | 0.942 | 0.743 | 0.905 | 0.731 | 0.664 | 0.66 | 0.626 | 0.53 | 0.618 | 0.675 | 0.664 | 0.748 | 0.531 | 0.644 |
| NCI-H1666 | 0.712 | 0.664 | 0.581 | 0.509 | 0.926 | 0.994 | 1.01 | 1.04 | 0.966 | 0.927 | 0.897 | 0.864 | 0.876 | 0.812 | 0.74 | 0.722 | 0.795 | 0.789 | 0.764 | 0.784 |
| NCI-H1734 | 1.12 | 1.04 | 0.959 | 0.871 | 0.219 | 0.19 | 0.16 | 0.172 | 0.224 | 0.192 | 0.178 | 0.187 | 0.421 | 0.405 | 0.446 | 0.456 | 0.659 | 0.551 | 0.613 | 0.485 |
| NCI-H1755 | 1.17 | 0.967 | 0.974 | 1.05 | 0.501 | 0.418 | 0.48 | 0.308 | 0.418 | 0.47 | 0.247 | 0.443 | 0.447 | 0.469 | 0.42 | 0.431 | 0.829 | 0.644 | 0.676 | 0.662 |
| NCI-H1792 | 0.83 | 0.773 | 0.883 | 0.755 | 0.424 | 0.46 | 0.498 | 0.35 | 0.399 | 0.429 | 0.388 | 0.446 | 0.761 | 0.835 | 0.756 | 0.424 | 0.736 | 0.523 | 0.689 | 0.558 |
| NCI-H1793 | 1.01 | 0.501 | 0.434 | 0.621 | 0.166 | 0.186 | 0.168 | 0.156 | 0.281 | 0.307 | 0.169 | 0.168 | 0.926 | 1.01 | 0.782 | 0.673 | 0.369 | 0.177 | 0.237 | 0.186 |
| NCI-H1915 | 1.08 | 1.03 | 0.992 | 1.01 | 0.877 | 0.691 | 0.625 | 0.678 | 0.711 | 0.75 | 0.613 | 0.797 | 0.46 | 0.472 | 0.506 | 0.477 | 0.677 | 0.404 | 0.585 | 0.481 |
| NCI-H1944 | 0.944 | 0.95 | 0.777 | 0.69 | 0.667 | 0.647 | 0.783 | 0.477 | 0.764 | 0.872 | 0.67 | 0.773 | 0.61 | 0.579 | 0.566 | 0.642 | 0.457 | 0.332 | 0.412 | 0.353 |
| NCI-H1975 | 0.891 | 0.928 | 0.837 | 0.447 | 0.249 | 0.186 | 0.159 | 0.123 | 0.226 | 0.19 | 0.123 | 0.223 | 0.298 | 0.31 | 0.271 | 0.279 | 0.676 | 0.669 | 0.611 | 0.277 |
| NCI-H1993 | 0.853 | 0.811 | 0.807 | 0.812 | 0.768 | 0.825 | 0.589 | 0.767 | 0.807 | 0.821 | 0.866 | 0.856 | 0.627 | 0.542 | 0.597 | 0.51 | 0.52 | 0.575 | 0.552 | 0.431 |
| NCI-H2009 | 1.26 | 0.438 | 0.961 | 0.888 | 1.1 | 1.14 | 1.04 | 1.08 | 1.05 | 0.954 | 0.936 | 1 | 0.956 | 0.878 | 0.921 | 1.06 | 0.618 | 0.463 | 0.635 | 0.54 |
| NCI-H2023 | 0.856 | 0.782 | 0.923 | 0.845 | 0.697 | 0.983 | 0.622 | 0.767 | 0.627 | 0.753 | 0.589 | 0.333 | 0.194 | 0.244 | 0.227 | 0.19 | 0.409 | 0.4 | 0.423 | 0.28 |
| NCI-H2085 | 0.77 | 0.822 | 0.805 | 0.564 | 0.416 | 0.524 | 0.445 | 0.43 | 0.42 | 0.464 | 0.371 | 0.42 | 0.971 | 0.784 | 0.928 | 0.632 | 0.716 | 0.593 | 0.774 | 0.519 |
| NCI-H2087 | 1.05 | 0.659 | 0.93 | 1.17 | 0.196 |  | 0.165 | 0.152 | 0.258 | 0.18 | 0.154 | 0.169 | 0.701 | 0.665 | 0.66 | 0.658 | 0.692 |  | 0.611 | 0.648 |
